The assay concerns DNA polymerase. Particulars: for 2SS characteristics: two slow step character, equals K1/K2; for K1 (S-1) / K2 (S-1): two slow step results, single molecule DNA sequencing, cyanine dye conjugate. From the text: In some cases, the system will have four kinetically observable (slow) reaction steps, two slow steps in a bright phase and two slow steps in a dark phase.

Data on 2 molecules can be found in US9499862B2, “Phospholinked dye analogs with an amino acid linker” (Pacific Biosciences of California, Inc., priority 2010, dated 2016).

As for `CC1(C)C(/C=C/C=C/C=C2/N(CCCCCC(=O)NC(CCCCN)C(=O)NC(CCCCN)C(=O)NCCCCCCOP(=O)(O)OP(=O)(O)OP(=O)(O)OC[C@H]3O[C@@H](n4ccc(N)nc4=O)CC3O)c3ccc4c(S(=O)(=O)O)cc(S(=O)(=O)O)cc4c3C2(C)C)=[N+](CCCS(=O)(=O)[O-])c2ccc3c(S(=O)(=O)O)cc(S(=O)(=O)O)cc3c21` (stereo partly drawn) [2Lys-tri-phosphate], the 2SS characteristics is on record as 6.5, the “K1 (S-1)” value is listed as 2.645 S-1 and the “K2 (S-1)” value is 0.406 S-1.
For `CC1(C)C(/C=C/C=C/C=C2/N(CCCCCC(=O)NC(CCC(=O)O)C(=O)NC(CCC(=O)O)C(=O)NCCCCCCOP(=O)(O)OP(=O)(O)OP(=O)(O)OC[C@H]3O[C@@H](n4ccc(N)nc4=O)CC3O)c3ccc4c(S(=O)(=O)O)cc(S(=O)(=O)O)cc4c3C2(C)C)=[N+](CCCS(=O)(=O)[O-])c2ccc3c(S(=O)(=O)O)cc(S(=O)(=O)O)cc3c21` (stereo partly drawn) [2Glu-tri-phosphate], in that order: 7.3, 7.898 S-1 and 1.082 S-1.
